The values that follow come from patent US20230124361A1, “SMALL MOLECULE STING ANTAGONISTS” (CURADEV PHARMA PVT. LTD., priority 2020, published 2023).

pIC50: −log10 of the molar value. Some results are limits rather than exact numbers.

In this test the target is T1, STING (Homo sapiens, UniProt Q86WV6, G230A/H232R/R293Q/R71H).
T1 construct: host or cells: THP1-Dual cells (human THP-1 monocyte line with Lucia/SEAP reporters)
T1 sequence (Q86WV6 whole entry R71H/G230A/H232R/R293Q): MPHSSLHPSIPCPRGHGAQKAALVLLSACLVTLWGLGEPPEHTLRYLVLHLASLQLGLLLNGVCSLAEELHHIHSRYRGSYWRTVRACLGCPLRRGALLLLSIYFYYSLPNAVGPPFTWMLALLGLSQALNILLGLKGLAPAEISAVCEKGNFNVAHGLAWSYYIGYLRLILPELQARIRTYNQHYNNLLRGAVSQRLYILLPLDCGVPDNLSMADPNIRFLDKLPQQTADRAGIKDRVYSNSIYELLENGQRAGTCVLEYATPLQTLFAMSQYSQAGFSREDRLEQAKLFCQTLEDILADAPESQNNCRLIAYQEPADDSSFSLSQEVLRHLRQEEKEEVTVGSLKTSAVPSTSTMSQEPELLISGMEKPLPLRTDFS
Put plainly: Reporter gene expression assay in THP1-Dual cells (IRF pathway Lucia luciferase, 2',3'-cGAMP stimulation). Type of test: cell-based. Particulars: 10 min preincubation, 5 μM 2',3'-cGAMP, 20 hr, IRF reporter QUANTI-Luc, read-out: THP-1 (HAQ) Activity. An outline of the steps: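 THP1-Dual cells preincubated 10 min with compound, then stimulated with 5 μM 2′,3′-cGAMP for 20 hr. Secreted Lucia luciferase (IRF reporter) measured in supernatant by luminescence; IC50 reported as ranges (A ≤1 μM, B >1–≤10 μM, C >10 μM).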
For orientation: Reporter assays use an easily measured gene product as a stand-in for the process of interest.
Regarding `O=C(Nc1ccc2c(c1)OCC(=O)N2Cc1ccccn1)Nc1ccc2cc[nH]c2c1` [Example 149, 1-(iH-indol-6-yl)-3-(3-oxo-4-(pyridin-2-ylmethyl)-3,4-dihydro-2H-benzo[b][1, 4]oxazin-7-yl)urea], the pIC50 is 5.00 to 6.00.

On to `O=C(Nc1ccc2c(c1)OCC(=O)N2CC1CCOC1)Nc1ccc2cc[nH]c2c1` (centres unmarked) [Example 150, 1-(1H-indol-6-yl)-3-(3-oxo-4-((tetrahydrofuran-3-yl)methyl)-3,4-dihydro-2H-benzo [b][1, 4]oxazin-7-yl)urea], for which the pIC50 is 5.00 to 6.00.

Regarding `O=C(Nc1ccc2c(c1)OCC(=O)N2Cc1nnco1)Nc1ccc2cc[nH]c2c1` [Example 151, 1-(4-((1,3,4′-oxadiazol-2-yl)methyl)-3-oxo-3,4-dihydro-2H-benzo[b][1, 4]oxazin-7-yl)-3-(1H-indol-6-yl)urea], the pIC50 is less than 5.00.

As to `O=C(Nc1ccc2c(c1)OCC(=O)N2Cc1cccc(O)c1)Nc1ccc2cc[nH]c2c1` [Example 152, 1-(4-(3-hydroxybenzyl)-3-oxo-3,4-dihydro-2H-benzo[b][1, 4]oxazin-7-yl)-3-(1H-indol-6-yl)urea], the pIC50 is 5.00 to 6.00.

As to `O=C(Nc1ccc2c(c1)OCC(=O)N2Cc1ccc(CO)cc1)Nc1ccc2cc[nH]c2c1` [Example 153, 1-(4-(4-(hydroxymethyl)benzyl)-3-oxo-3,4-dihydro-2H-benzo[b][1, 4]oxazin-7-yl)-3-(1H-indol-6-yl)urea], the pIC50 is less than 5.00.

Regarding `O=C(Nc1ccc2c(c1)OCC(=O)N2Cc1cnccn1)Nc1ccc2cc[nH]c2c1` [Example 154, 1-(1H-indol-6-yl)-3-(3-oxo-4-(pyrazin-2-ylmethyl)-3,4-dihydro-2H-benzo[b][i, 4]oxazin-7-yl)urea], the pIC50 is less than 5.00.

For the compound `NC(=O)c1cccc(CN2C(=O)COc3cc(NC(=O)Nc4ccc5cc[nH]c5c4)ccc32)c1` [Example 155, 3-((7-(3-(1H-indol-6-yl)ureido)-3-oxo-2,3-dihydro-4H-benzo[b][1, 4]oxazin-4-yl)methyl) benzamide], the pIC50 is less than 5.00.

In the case of `O=C(Nc1ccc2c(c1)OCC(=O)N2Cc1cccc(CO)c1)Nc1ccc2cc[nH]c2c1` [Example 156, 1-(4-(3-(hydroxymethyl)benzyl)-3-oxo-3,4-dihydro-2H-benzo[b][1, 4]oxazin-7-yl)-3-(1H-indol-6-yl)urea], the pIC50 was 5.00 to 6.00.

Take `N#CCN1C(=O)COc2cc(NC(=O)Nc3ccc4cc[nH]c4c3)ccc21` [Example 157, 1-(4-(cyanomethyl)-3-oxo-3,4-dihydro-2H-benzo[b][1, 4]oxazin-7-yl)-3-(1H-indol-6-yl)urea]: the pIC50 was 5.00 to 6.00.

Regarding `O=C(Nc1ccc2c(c1)OCC(=O)N2Cc1ccc[nH]c1=O)Nc1ccc2cc[nH]c2c1` [Example 158, 1-(1H-indol-6-yl)-3-(3-oxo-4-((2-oxo-1,2-dihydropyridin-3-yl)methyl)-3,4-dihydro-2H-benzo[b][1, 4]oxazin-7-yl)urea], the pIC50 is less than 5.00.

Turning to `O=C(Nc1ccc2c(c1)OCC(=O)N2Cc1ccccc1O)Nc1ccc2cc[nH]c2c1` [Example 159, 1-(4-(2-hydroxybenzyl)-3-oxo-3,4-dihydro-2H-benzo [b][1, 4]oxazin-7-yl)-3-(1H-indol-6-yl)urea], the pIC50 was 5.00 to 6.00.

`O=C(Nc1ccc2c(c1)OCC(=O)N2Cc1ccncn1)Nc1ccc2cc[nH]c2c1` [Example 160, 1-(1H-indol-6-yl)-3-(3-oxo-4-(pyrimidin-4-ylmethyl)-3,4-dihydro-2H-benzo[b][1, 4]oxazin-7-yl)urea]: the pIC50 is 5.00 to 6.00.

As for `O=C(Nc1ccc2c(c1)OCC(=O)N2Cc1ccn[nH]1)Nc1ccc2cc[nH]c2c1` [Example 161, 1-(4-((1H-pyrazol-5-yl)methyl)-3-oxo-3,4-dihydro-2H-benzo[b][1, 4]oxazin-7-yl)-3-(1H-indol-6-yl)urea], the pIC50 was less than 5.00.

Take `O=C(Nc1ccc2c(c1)OCC(=O)N2Cc1cnc[nH]1)Nc1ccc2cc[nH]c2c1` [Example 162, 1-(4-((1H-imidazol-5-yl)methyl)-3-oxo-3,4-dihydro-2H-benzo[b][1, 4]oxazin-7-yl)-3-(1H-indol-6-yl)urea]: the pIC50 is less than 5.00.

`O=C(Nc1ccc2c(c1)OCC(=O)N2Cc1ncno1)Nc1ccc2cc[nH]c2c1` [Example 163, 1-(4-((1,2,4-oxadiazol-5-yl)methyl)-3-oxo-3,4-dihydro-2H-benzo[b][1,4]oxazin-7-yl)-3-(1H-indol-6-yl)urea]: the pIC50 is less than 5.00.

For `O=C(Nc1ccc2c(c1)OCC(=O)N2Cc1ccon1)Nc1ccc2cc[nH]c2c1` [Example 164, 1-(1H-indol-6-yl)-3-(4-(isoxazol-3-ylmethyl)-3-oxo-3,4-dihydro-2H-benzo[b][1, 4]oxazin-7-yl)urea], the pIC50 is 5.00 to 6.00.

Consider `NC(=O)c1cc2c(cc1NC(=O)Nc1ccc3cc[nH]c3c1)OCC(=O)N2Cc1ccccc1` [Example 165, 7-(3-(H-indol-6-yl)ureido)-4-benzyl-3-oxo-3,4-dihydro-2H-benzo[b][1, 4]oxazine-6-carboxamide], for which the pIC50 was 5.00 to 6.00.

Consider `O=C(Nc1ccc2cc[nH]c2c1)Nc1cc2c(cc1Br)N(Cc1ccccc1)C(=O)CO2` [Example 166, 1-(4-benzyl-6-bromo-3-oxo-3,4-dihydro-2H-benzo[b][1, 4]oxazin-7-yl)-3-(1H-indol-6-yl)urea], for which the pIC50 is 5.00 to 6.00.

Take `O=C(Nc1ccc2c(c1)N(Cc1ccccc1)CC[S+]2[O-])Nc1ccc2cc[nH]c2c1` (centres unmarked) [Example 167, 1-(4-benzyl-1-oxido-3,4-dihydro-2H-benzo[b][1, 4]thiazin-6-yl)-3-(1H-indol-6-yl)urea]: the pIC50 is less than 5.00.

Consider `CN1CCSc2ccc(NC(=O)Nc3ccc4cc[nH]c4c3)cc21` [Example 168, 1-(1H-indol-6-yl)-3-(4-methyl-3,4-dihydro-2H-benzo[b][1, 4]thiazin-6-yl)urea], for which the pIC50 is less than 5.00.

Take `O=C(Nc1ccc2c(c1)N(Cc1c(F)cccc1Cl)CCO2)Nc1ccc2cc[nH]c2c1` [Example 169, 1-(4-(2-chloro-6-fluorobenzyl)-3,4-dihydro-2H-benzo[b][1, 4]oxazin-6-yl)-3-(1H-indol-6-yl)urea]: the pIC50 was not below 6.00.

Regarding `O=C(Nc1ccc2c(c1)OCCN2Cc1c(F)cccc1Cl)Nc1ccc2cc[nH]c2c1` [Example 170, 1-(4-(2-chloro-6-fluorobenzyl)-3,4-dihydro-2H-benzo[b][1, 4]oxazin-7-yl)-3-(1H-indol-6-yl)urea], the pIC50 was 5.00 to 6.00.

Turning to `O=C(Nc1ccc2c(c1)SCCN2Cc1c(F)cccc1Cl)Nc1ccc2cc[nH]c2c1` [Example 171, 1-(4-(2-chloro-6-fluorobenzyl)-3,4-dihydro-2H-benzo[b][1, 4]thiazin-7-yl)-3-(1H-indol-6-yl)urea], the pIC50 is not below 6.00.

As for `O=C(Nc1ccc2c(c1)N(Cc1ccccc1)CCO2)Nc1ccc2cc[nH]c2n1` [Example 172, 1-(4-benzyl-3,4-dihydro-2H-benzo[b][1, 4]oxazin-6-yl)-3-(1H-pyrrolo[2,3-b]pyridin-6-yl)urea], the pIC50 was 5.00 to 6.00.

For `O=C(Nc1ccc(F)cc1)Nc1ccc2c(c1)N(Cc1ccccc1)CCS2` [Example 173, 1-(4-benzyl-3,4-dihydro-2H-benzo[b][1, 4]thiazin-6-yl)-3-(4-fluorophenyl) urea], the pIC50 was 5.00 to 6.00.

Consider `O=C(Nc1ccc2c(c1)N(Cc1ccc(OC(F)(F)F)cc1F)CCO2)Nc1ccc2cc[nH]c2c1` [Example 174, 1-(4-(2-fluoro-4-(trifluoro-methoxy)benzyl)-3,4-dihydro-2H-benzo[b][1, 4]oxazin-6-yl)-3-(1H-indol-6-yl)urea], for which the pIC50 was not below 6.00.

In the case of `O=S(=O)(Nc1ccc2c(c1)OCCN2c1ccccc1)Nc1ccc2cc[nH]c2c1` [Example 175, N-1H-indol-6-yl-N′-(4-phenyl-3,4-dihydro-2H-1,4-benzoxazin-7-yl)sulfuric diamide], the pIC50 is 5.00 to 6.00.

For the compound `O=S(=O)(Nc1ccc2c(c1)N(Cc1ccccc1)CCO2)Nc1ccc2cc[nH]c2c1` [Example 176, 4-Benzyl-N-(1H-indol-6-ylsulfamoyl)-2,3-dihydro-1,4-benzoxazin-6-amine], the pIC50 is 5.00 to 6.00.

With `O=C(Nc1ccc2c(c1)N(Cc1ccccc1)CCO2)Nc1cnc2cc[nH]c2c1` [Example 177, 1-(4-benzyl-3,4-dihydro-2H-benzo[b][1, 4]oxazin-6-yl)-3-(1H-pyrrolo[3,2-b]pyridin-6-yl)urea], the pIC50 is 5.00 to 6.00.

Take `CN(C(=O)Nc1ccc2cc[nH]c2c1)c1ccc2c(c1)N(Cc1ccccc1)CCO2` [Example 178, 1-(4-benzyl-3,4-dihydro-2H-benzo[b][1, 4]oxazin-6-yl)-3-(1H-indol-6-yl)-1-methylurea]: the pIC50 was 5.00 to 6.00.

Regarding `NC(=O)c1cc2c(cc1NC(=O)Nc1ccc3cc[nH]c3c1)N(Cc1ccccc1)CCO2` [Example 179, 6-(3-(1H-indol-6-yl)ureido)-4-benzyl-3,4-dihydro-2H-benzo[b][1, 4]oxazine-7-carboxamide], the pIC50 is 5.00 to 6.00.

`O=C(Nc1ccc2cc[nH]c2c1)Nc1cc2c(cc1Br)OCCN2Cc1ccccc1` [Example 180, 1-(4-benzyl-7-bromo-3,4-dihydro-2H-benzo[b][1, 4]oxazin-6-yl)-3-(1H-indol-6-yl)urea]: the pIC50 was 5.00 to 6.00.

Take `O=C(Nc1ccc2c(c1)OCCN2c1ccccc1)Nc1ccc2cc[nH]c2c1` [Example 181, 1-(1H-indol-6-yl)-3-(4-phenyl-3,4-dihydro-2H-benzo[b][1,4]oxazin-7-yl)urea]: the pIC50 was not below 6.00.

Consider `O=C(Nc1ccc2c(c1)SCCN2c1ccccc1)Nc1ccc2cc[nH]c2c1` [Example 182, 1-(1H-indol-6-yl)-3-(4-phenyl-3,4-dihydro-2H-benzo[b][1,4]thiazin-7-yl)urea], for which the pIC50 is not below 6.00.

Turning to `O=C(Nc1ccc2c(c1)N(c1ccccc1)C(=O)CO2)Nc1ccc2cc[nH]c2c1` [Example 183, 1-(1H-indol-6-yl)-3-(3-oxo-4-phenyl-3,4-dihydro-2H-benzo[b][1,4]oxazin-6-yl)urea], the pIC50 was less than 5.00.
